# Measured values from publication PMC7729195, “Pharmacodynamic Functions of Synthetic Derivatives for Treatment of Methicillin-Resistant Staphylococcus aureus (MRSA) and Mycobacterium tuberculosis” (Frontiers in Microbiology, 2020).
# Experiments:
# [1] = system: A549, THP-1, HepG2 and HEK 293 cell lines; format: cell-based, human
# Protocol: (§1) Human alveolar epithelial cells (A549), ([Giard et al., 1973]), Madin-Darby canine kidney epithelial cells (MDCK), ([Gaush et al., 1966]), human leukemia cells (THP-1) ([Tsuchiya et al., 1980]), human hepatocellular carcinoma cells (Hep-G2), ([Aden et al., 1979]), and human embryonic kidney cells 293 (HEK293) ([Graham et al., 1977]) were grown and differentiated in complete RPMI (Roswell Park Memorial Institute Medium) and DMEM (Dulbecco’s Modified Eagle’s medium) tissue culture media (RPMIc and DMEMc). To determine toxicity of the AIMS extract library, 2 × 10^5 of each cell type were added to a 96-well plate and left for 48 h at 37°C to adhere. Extract samples at a final concentration of 0.5 mg mL^–1 were added to the wells, then incubated for 7 days in a humidified 5% CO2 incubator at 37°C. Then resazurin (10 μL of 0.05% w/v) was added, and after 4 h, fluorescence measured as described previously. Cell viability was calculated as percentage fluorescence relative to untreated cells.
# P. aeruginosa PAO1 = experiment: Bacterial inhibition assay (resazurin), MIC against P. aeruginosa; format: cell-based, Pseudomonas aeruginosa; conditions: Pseudomonas aeruginosa, PAO1; synthetic compounds, 18 h incubation
# M. tuberculosis = experiment: Time-kill study against M. tuberculosis; format: cell-based, Mycobacterium tuberculosis; conditions: rifampicin plus compound, day 7 of treatment
# Protocol: Time-kill experiments were performed by culturing MRSA and M. tuberculosis in liquid medium in the presence of six synthesized sample concentrations in doubling dilutions ranging from 8 to 0.001 × MIC and 2 × MIC for both bacteria, respectively. Growth curves were initially generated to confirm that bacteria would reach a stable early- to mid-log phase after 2 and 48 h of pre-incubation in antimicrobial-free both medium, respectively. Samples were taken in different incubation times after drug exposure at 0, 2, 4, 6, 8, and 24 h for MRSA and 24, 48 h, and 4 and 6 days for M. tuberculosis and then plated onto agar plates for CFU determination. The experiments were carried out in duplicate and repeated three times.
# resistant strains = experiment: MIC against resistant strains; format: cell-based; conditions: read-out: MIC against resistant strains
# M. tuberculosis H37Rv [2] = experiment: Bacterial inhibition assay (resazurin), MIC against M. tuberculosis; format: cell-based, Mycobacterium tuberculosis; set-up: MIC for TB. H37Rv: unit not given here
# M. tuberculosis H37Rv [3] = experiment: Checkerboard assay with rifampicin against M. tuberculosis; format: cell-based, Mycobacterium tuberculosis
# E. coli EC958 = experiment: Bacterial inhibition assay (resazurin), MIC against E. coli; format: cell-based, Escherichia coli; conditions: synthetic compounds, 18 h incubation
# TB. H37Rv = experiment: Minimum bactericidal concentration (MBC) for TB; format: cell-based, Mycobacterium tuberculosis; set-up: unit not given here; conditions: sub-culture on agar, 7 days
# MRSA [4] = experiment: Minimum bactericidal concentration (MBC) for MRSA; format: cell-based, Staphylococcus aureus; set-up: unit not given here; conditions: sub-culture on agar, 18 h
# THP1 = format: cell-based; conditions: human, 7 days
# Protocol: as §1
# HEK 293 = format: cell-based; conditions: human, 7 days
# Protocol: as §1
# A549 = format: cell-based; conditions: human, 7 days
# Protocol: as §1
# HepG2 = format: cell-based; conditions: human, 7 days
# Protocol: as §1
# MRSA [5] = experiment: Checkerboard assay with vancomycin against MRSA; format: cell-based, Staphylococcus aureus; conditions: MRSA
# MRSA [6] = experiment: Bacterial inhibition assay (resazurin), MIC against MRSA; format: cell-based, Staphylococcus aureus; set-up: MIC for MRSA: unit not given here
# MRSA [7] = experiment: Time-kill study against MRSA; format: cell-based, Staphylococcus aureus
# [8] = M. tuberculosis, compound with rifampicin
compound,measurement,setting,value
"CCCCCCCCN(CCCCCCCC)CCc1cn(-c2ccc3c4c(cccc24)C(=O)N(CC)C3=O)nn1 [Compound 18, 6-(4-(2-(Dioctylamino) Ethyl)-1H-1,2,3-Triazol-1-yl)-2-Ethyl-1H-Benzo[de]isoquinoline-1,3(2H)-Dione]",Toxicity against THP1 and/or HEK 293 cells,[1],some toxicity
same,MIC,P. aeruginosa PAO1,12.5 ± 0.8 µM
same,Killing effect with rifampicin,M. tuberculosis,comparable killing effects
same,MIC,resistant strains,2.2 µM
same,MIC,"M. tuberculosis H37Rv [2]; Mycobacterium tuberculosis, H37RV, 168 h, synthetic compounds, 7 days incubation",12.5 ± 1 µM
same,MIC for TB. H37Rv,M. tuberculosis H37Rv [2]; Table 6 summary,6.25
same,Drug–drug interactions,M. tuberculosis H37Rv [3]; [8],Indifference (0.25–4 indifferent or additive activity)
same,FIC,M. tuberculosis H37Rv [3]; [8],1
same,MIC50,"M. tuberculosis H37Rv [3]; Mycobacterium tuberculosis, H37RV, read-out: Compound alone MIC50 for M. tuberculosis",6.25 µM
same,Effect against M. tuberculosis in combination with rifampicin,M. tuberculosis H37Rv [3]; rifampicin plus compound,synergistic or bactericidal effects
same,MIC,"E. coli EC958; Escherichia coli, EC958",1.5 µM
same,MIC E. coli,E. coli EC958,1.5 ± 4.0 µM
same,MBC for TB. H37Rv,TB. H37Rv,50
same,MBC for MRSA,MRSA [4],12.5
same,Minimum toxicity concentration of drug (MTC) THP1,THP1,>100 ± 9.0 µM
same,Minimum toxicity concentration of drug (MTC) HEK 293,HEK 293,3.1 ± 8.2 µM
same,Minimum toxicity concentration of drug (MTC) A549,A549,>100 ± 6.0 µM
same,Minimum toxicity concentration of drug (MTC) HepG2,HepG2,>100 ± 5.0 µM
same,Drug–drug interactions,MRSA [5]; compound with vancomycin,Indifference (0.25–4 indifferent or additive activity)
same,FIC,MRSA [5]; compound with vancomycin,1.2
same,MIC50,"MRSA [5]; Staphylococcus aureus, compound alone",12.5 µM
same,MIC,"MRSA [6]; Staphylococcus aureus, MRSA, synthetic compounds, 18 h incubation",12.5 ± 2 µM
same,MIC for MRSA,MRSA [6]; Table 6 summary,12.5
same,Effect of sub-inhibitory combination with vancomycin on MRSA growth,MRSA [7]; sub-inhibitory combinations with vancomycin,substantially inhibited growth of MRSA
same,Concentration at which killing was observed,"MRSA [7]; time-kill, MRSA",12.5 μg mL^–1
